The values that follow are results of earlier work, collected in patent publication US10927398B2, “Compositions for CYP450 phenotyping using saliva samples” (Concordia University, Inc., priority 2015, dated 2021).

For data set [1] the following is noted: cited from earlier work.
The test system of a further data set is plasma protein. The conditions noted are these: cited from earlier work.
For data set [2] the following is noted: cited from earlier work. This is another data set of the same source.
Where [3] appears, read: Table of Exemplary Drugs, CYP3A4.
[4] abbreviates: Table of Exemplary Drugs, CYP1A2.
Where [5] appears, read: Table of Exemplary Drugs, CYP2D6.
The mark [6] stands for this setting: Table of Exemplary Drugs, CYP2C19.

Each structure is given as a SMILES string. Where two headings read alike, the source gives them in different places.

Turning to `CO[C@H]1C[C@@H]2CC[C@@H](C)[C@@](O)(O2)C(=O)C(=O)N2CCCC[C@H]2C(=O)O[C@H]([C@H](C)C[C@@H]2CC[C@@H](O)[C@H](OC)C2)CC(=O)[C@H](C)/C=C(\C)[C@@H](O)[C@@H](OC)C(=O)[C@H](C)C[C@H](C)/C=C/C=C/C=C/1C` [Sirolimus (Rapamune), Sirolimus], the “ORAL BIOAVAILABILITY” value in data set [1] (setting [3]) was 14-27%. The “PLASMA PROTEIN BINDING” value in the data set with plasma protein (setting [3]) was 92%. Besides, the “HALF-LIFE” value in data set [2] (setting [3]) was 61.3 to 72.3 h.
As to `C[C@]12CC[C@@H]3c4ccc(O)cc4CC[C@H]3[C@@H]1CC[C@@H]2O` [Estradiol], in data set [1] (setting [4]), the “ORAL BIOAVAILABILITY” value is recorded as 43%. In addition, the “PLASMA PROTEIN BINDING” value in the data set with plasma protein (setting [4]) is >95%. Further, the “HALF-LIFE” value in data set [2] (setting [4]) is 36 h.
For `CCN(CC)CCN1C(=O)CN=C(c2ccccc2F)c2cc(Cl)ccc21` [Flurazepam (Dalmane), Flurazepam], in data set [1] (setting [3]), the “ORAL BIOAVAILABILITY” value is recorded as 83%. Moreover, the “PLASMA PROTEIN BINDING” value in the data set on plasma protein (setting [3]) was 97.2%^. For the same compound, the “HALF-LIFE” value in data set [2] (setting [3]) is 2.3 h.
Consider `CNCC[C@@H](Oc1ccccc1C)c1ccccc1` [Atomoxetine], for which the “ORAL BIOAVAILABILITY” value in data set [1] (setting [5]) is 63%. In the data set on plasma protein (setting [5]), the “PLASMA PROTEIN BINDING” value is reported as 98%. Further, the “HALF-LIFE” value in data set [2] (setting [5]) was 5.2 h.
With `COC(=O)C1=C(C)NC(C)=C(C(=O)OC(C)C)C1c1cccc2nonc12` (stereo not drawn) [Isradipine (DynaCirc), Isradipine], the “ORAL BIOAVAILABILITY” value is listed as “CR: 15-24%” in data set [1] (cell marked CR, Table of Exemplary Drugs, CYP3A4) and “IR 90-95%;” in data set [1] (cell marked IR, Table of Exemplary Drugs, CYP3A4). Besides, the “PLASMA PROTEIN BINDING” value in the data set on plasma protein (setting [3]) is reported as 95%. The “HALF-LIFE” value in data set [2] (setting [3]) was 8 h.
Consider `COc1cc(N)c(Cl)cc1C(=O)NC1CCN(CCCOc2ccc(F)cc2)CC1OC` (stereo not drawn) [Cisapride (Propulsid), Cisapride], for which, in data set [1] (setting [3]), the “ORAL BIOAVAILABILITY” value is 35-65%. Besides, the “PLASMA PROTEIN BINDING” value in the data set on plasma protein (setting [3]) is 98%. In data set [2] (setting [3]), the “HALF-LIFE” value was 6 to 12 h.
For `COC(=O)[C@H](c1ccccc1Cl)N1CCc2sccc2C1` [Clopidogrel], the “ORAL BIOAVAILABILITY” value in data set [1] (setting [6]) and in data set [1] (setting [3]) was >50% each time. The “PLASMA PROTEIN BINDING” value is given as 98% in the data set with plasma protein (setting [6]) and 94-98% ^ with plasma protein (setting [3]). The “HALF-LIFE” value in data set [2] (setting [3]) was 6 h.
Turning to `CNCC[C@H](Oc1cccc2ccccc12)c1cccs1` [Duloxetine], the “ORAL BIOAVAILABILITY” value in data set [1] (setting [5]) is reported as 30-80%. Also, the “PLASMA PROTEIN BINDING” value with plasma protein (setting [5]) is given as >90%. In addition, in data set [2] (in vivo), the “HALF-LIFE” value was 12 h.
For `COc1cc(C(C)=O)ccc1OCCCN1CCC(c2noc3cc(F)ccc23)CC1` [Iloperidone], the “ORAL BIOAVAILABILITY” value in data set [1] (setting [5]) was 96%. Moreover, the “PLASMA PROTEIN BINDING” value with plasma protein (setting [5]) is reported as 95%. In addition, the “HALF-LIFE” value in data set [2] (setting [5]) is 18 to 33 h.
With `CC(CN1c2ccccc2Sc2ccccc21)N(C)C` (stereo not drawn) [Promethazine], in data set [1] (setting [5]), the “ORAL BIOAVAILABILITY” value was 88%. Besides, the “PLASMA PROTEIN BINDING” value with plasma protein (setting [5]) was 93%. In data set [2] (setting [5]), the “HALF-LIFE” value is 16 to 19 h.
For the compound `CN(C)CCC=C1c2ccccc2C=Cc2ccccc21` [Cyclobenzaprine], the “ORAL BIOAVAILABILITY” value in data set [1] (setting [4]) was 33-55%. Also, in the data set with plasma protein (setting [4]), the “PLASMA PROTEIN BINDING” value is on record as 93%. Moreover, the “HALF-LIFE” value in data set [2] (setting [4]) was 8 to 37 h.
In the case of `COc1ccc([C@@H]2Sc3ccccc3N(CCN(C)C)C(=O)[C@@H]2OC(C)=O)cc1` [Diltiazem (Cardizem), Diltiazem], in data set [1] (setting [3]), the “ORAL BIOAVAILABILITY” value was >40%. Further, in the data set with plasma protein (setting [3]), the “PLASMA PROTEIN BINDING” value is on record as 70-80% ^. Moreover, the “HALF-LIFE” value in data set [2] (setting [3]) was 3 to 6 h.
On to `COc1ccc2c3c1O[C@H]1C(=O)CC[C@@]4(O)[C@@H](C2)N(C)CC[C@]314` [Oxycodone], for which the “ORAL BIOAVAILABILITY” value in data set [1] (setting [5]) and in data set [1] (setting [3]) was 60-87% throughout. Further, the “PLASMA PROTEIN BINDING” value in the data set with plasma protein (setting [5]) and in the data set on plasma protein (setting [3]) was 45% each time. The “HALF-LIFE” value in data set [2] (setting [5]) and in data set [2] (setting [3]) was 5.6 h in each case.
For the compound `CNC1(c2ccccc2Cl)CCCCC1=O` (stereo not drawn) [Ketamine], the “ORAL BIOAVAILABILITY” value in data set [1] (in vivo) is “IM: 90-93%, PO: 16%”. In addition, the “PLASMA PROTEIN BINDING” value in the data set on plasma protein (plasma) is reported as 47%. In addition, in data set [2] (in vivo), the “HALF-LIFE” value was 2 to 3 h.
